≈ marks a conversion by molar mass, not a printed value.
Key:
Test in all cases: in vitro antibacterial evaluation, MIC by broth dilution
Format in all cases: cell-based
Staphylococcus sp. = conditions: broth dilution, 18 hours at 35° C.
Procedure, shortened: (§1)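 MIC, the lowest antibiotic concentration preventing growth, was read across 64-0.06 μg/mL with 5×10^5 CFU/mL inoculum. Method followed NCCLS M7-A2 broth dilution using Mueller-Hinton II; Gram-positive strains covered recent methicillin-, penicillin- and/or vancomycin-resistant clinical isolates.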

Escherichia coli = conditions: 18 hours at 35° C., strain ATCC 25922
Procedure, shortened: as §1

Streptococcus sp. = conditions: broth dilution, 18 hours at 35° C.
Procedure, shortened: as §1

Enterococcus sp. = conditions: broth dilution, 18 hours at 35° C.
Procedure, shortened: as §1

MIC Coagulase Negative Staphylococcus (GC 4547) (Staphylococcus sp.): 2 µg/mL (≈ 1.4 µM)
MIC Coagulase Negative Staphylococcus (GC 4548) (Staphylococcus sp.): 2 µg/mL (≈ 1.4 µM)
MIC Coagulase Negative Staphylococcus (GC 4549) (Staphylococcus sp.): 1 µg/mL (≈ 0.7 µM)
MIC Coagulase Negative Staphylococcus (GC 4551) (Staphylococcus sp.): 8 µg/mL (≈ 5.6 µM)
MIC Coagulase Negative Staphylococcus (ID-3941) (Staphylococcus sp.): 1 µg/mL (≈ 0.7 µM)
MIC Staphylococcus aureus (ATCC 29213) (Staphylococcus sp.): 4 µg/mL (≈ 2.8 µM)
MIC Staphylococcus aureus (GC 1131) (Staphylococcus sp.): 4 µg/mL (≈ 2.8 µM)
MIC Staphylococcus aureus (GC 4541) (Staphylococcus sp.): 4 µg/mL (≈ 2.8 µM)
MIC Staphylococcus aureus (GC 4542) (Staphylococcus sp.): 8 µg/mL (≈ 5.6 µM)
MIC Staphylococcus aureus (GC 4544) (Staphylococcus sp.): 8 µg/mL (≈ 5.6 µM)
MIC Staphylococcus aureus (GC 4545) (Staphylococcus sp.): 4 µg/mL (≈ 2.8 µM)
MIC Staphylococcus aureus-SMITH (GC 4543) (Staphylococcus sp.): 4 µg/mL (≈ 2.8 µM)
MIC Coagulase Negative Staphylococcus (GC 4547) (Staphylococcus sp.; strain GC 4547): 2 µg/mL (≈ 1.4 µM)
MIC Coagulase Negative Staphylococcus (GC 4548) (Staphylococcus sp.; strain GC 4548): 2 µg/mL (≈ 1.4 µM)
MIC Coagulase Negative Staphylococcus (GC 4549) (Staphylococcus sp.; strain GC 4549): 1 µg/mL (≈ 0.7 µM)
MIC Coagulase Negative Staphylococcus (GC 4551) (Staphylococcus sp.; strain GC 4551): 8 µg/mL (≈ 5.6 µM)
MIC Coagulase Negative Staphylococcus (ID-3941) (Staphylococcus sp.; strain ID-3941): 1 µg/mL (≈ 0.7 µM)
MIC Staphylococcus aureus-SMITH (GC 4543) (Staphylococcus sp.; strain SMITH GC 4543): 4 µg/mL (≈ 2.8 µM)
MIC Staphylococcus aureus (ATCC 29213) (Staphylococcus sp.; strain ATCC 29213): 4 µg/mL (≈ 2.8 µM)
MIC Staphylococcus aureus (GC 1131) (Staphylococcus sp.; strain GC 1131): 4 µg/mL (≈ 2.8 µM)
MIC Staphylococcus aureus (GC 4541) (Staphylococcus sp.; strain GC 4541): 4 µg/mL (≈ 2.8 µM)
MIC Staphylococcus aureus (GC 4542) (Staphylococcus sp.; strain GC 4542): 8 µg/mL (≈ 5.6 µM)
MIC Staphylococcus aureus (GC 4544) (Staphylococcus sp.; strain GC 4544): 8 µg/mL (≈ 5.6 µM)
MIC Staphylococcus aureus (GC 4545) (Staphylococcus sp.; strain GC 4545): 4 µg/mL (≈ 2.8 µM)
MIC Escherichia coli (ATCC 25922) (Escherichia coli): >64 µg/mL
MIC Streptococcus agalactiae (GC 4564) (Streptococcus sp.; Streptococcus agalactiae (GC 4564)): 2 µg/mL (≈ 1.4 µM)
MIC Streptococcus pneumoniae (GC 4565) (Streptococcus sp.; Streptococcus pneumoniae (GC 4565)): <0.5 µg/mL
MIC Streptococcus pyogenes (ID-3187) (Streptococcus sp.; Streptococcus pyogenes (ID-3187)): 2 µg/mL (≈ 1.4 µM)
MIC Streptococcus agalactiae (GC 4564) (Streptococcus sp.; strain GC 4564): 2 µg/mL (≈ 1.4 µM)
MIC Streptococcus pneumoniae (GC 4565) (Streptococcus sp.; strain GC 4565): <0.5 µg/mL
MIC Streptococcus pyogenes (ID-3187) (Streptococcus sp.; strain ID-3187): 2 µg/mL (≈ 1.4 µM)
MIC Enterococcus avium (GC 4558) (Enterococcus sp.; Enterococcus avium (GC 4558)): 32 µg/mL (≈ 22.4 µM)
MIC Enterococcus faecalis (ATCC 29212) (Enterococcus sp.; Enterococcus faecalis (ATCC 29212)): 32 µg/mL (≈ 22.4 µM)
MIC Enterococcus faecalis (GC 2242) (Enterococcus sp.; Enterococcus faecalis (GC 2242)): 16 µg/mL (≈ 11.2 µM)
MIC Enterococcus faecalis (GC 4552) (Enterococcus sp.; Enterococcus faecalis (GC 4552)): 64 µg/mL (≈ 44.8 µM)
MIC Enterococcus faecalis (GC 4553) (Enterococcus sp.; Enterococcus faecalis (GC 4553)): 32 µg/mL (≈ 22.4 µM)
MIC Enterococcus faecalis (GC 4554) (Enterococcus sp.; Enterococcus faecalis (GC 4554)): 64 µg/mL (≈ 44.8 µM)
MIC Enterococcus faecium (GC 2243) (Enterococcus sp.; Enterococcus faecium (GC 2243)): 32 µg/mL (≈ 22.4 µM)
MIC Enterococcus faecium (GC 4556) (Enterococcus sp.; Enterococcus faecium (GC 4556)): 32 µg/mL (≈ 22.4 µM)
MIC Enterococcus faecium (GC 4557) (Enterococcus sp.; Enterococcus faecium (GC 4557)): 2 µg/mL (≈ 1.4 µM)
MIC Enterococcus faecalis (ATCC 29212) (Enterococcus sp.; strain ATCC 29212): 32 µg/mL (≈ 22.4 µM)
MIC Enterococcus faecalis (GC 2242) (Enterococcus sp.; strain GC 2242): 16 µg/mL (≈ 11.2 µM)
MIC Enterococcus faecium (GC 2243) (Enterococcus sp.; strain GC 2243): 32 µg/mL (≈ 22.4 µM)
MIC Enterococcus faecalis (GC 4552) (Enterococcus sp.; strain GC 4552): 64 µg/mL (≈ 44.8 µM)
MIC Enterococcus faecalis (GC 4553) (Enterococcus sp.; strain GC 4553): 32 µg/mL (≈ 22.4 µM)
MIC Enterococcus faecalis (GC 4554) (Enterococcus sp.; strain GC 4554): 64 µg/mL (≈ 44.8 µM)
MIC Enterococcus faecium (GC 4556) (Enterococcus sp.; strain GC 4556): 32 µg/mL (≈ 22.4 µM)
MIC Enterococcus faecium (GC 4557) (Enterococcus sp.; strain GC 4557): 2 µg/mL (≈ 1.4 µM)
MIC Enterococcus avium (GC 4558) (Enterococcus sp.; strain GC 4558): 32 µg/mL (≈ 22.4 µM)
Compound: CC(c1ccccc1)C1NC(=O)CNC(=O)C(CO)NC(=O)C(C(O)C2CNC(=N)N2C2OC(CO)C(O)C(O)C2O)NC(=O)C(C(O)C2CNC(=N)N2)NC(=O)C(Cc2ccc(OC3OC(COC(=O)OCc4ccccc4)C(OC4OC(CO)C(O)C(O)C4O)C(O)C3O)cc2)NC1=O (stereo not drawn) [Example 101, Cyclo[glycyl-β-methylphenylalanyl-O-[4-O-hexopyranosyl-6-O-[(phenylmethoxy)carbonyl]-hexopyranosyl]tyrosyl-3-(2-iminoimidazolidin-4-yl)seryl-3-(3-hexopyranosyl-2-iminoimidazolidin-4-yl)serylseryl]]
MIC Staphylococcus haemolyticus (GC 4546) (Staphylococcus sp.): 4 µg/mL (≈ 2.8 µM)
MIC Staphylococcus haemolyticus (GC 4546) (Staphylococcus sp.; strain GC 4546): 4 µg/mL (≈ 2.8 µM)

— patent US6914045B2, “Glycopeptide antibiotics” (Wyeth Holdings Corporation, priority 2001, dated 2005)
